In patent US20080139578A1, “Substituted piperizines for the treatment of pain” (priority 2006, published 2008):

How the values were obtained:
Format in all cases: in vivo
Male Sprague Dawley rats = test: Rodent CFA model of inflammatory pain (mechanical hyperalgesia, Ugo Basile paw pressure); conditions: rat CFA model
[1] = tested on: Male Sprague-Dawley (Charles River) rats; test: Capsaicin-induced allodynia model (von Frey filaments); conditions: rat
Procedure: Male Sprague-Dawley (Charles River) rats were habituated to the von Frey stands for 4 hr the day prior to the testing day. Tactile allodynia was assessed using calibrated von Frey filaments (up-down method) before and 30, 60 and 120 min post capsaicin injection. Capsaicin (30 μg in 10 μl) was diluted in Ethanol:Tween80:Saline (20:7:73) and administered into the rat left paw. The test compound is administered P.O. at 3, 10 or 30 mg/kg (4 ml/kg) 30 min prior to capsaicin administration. Data are expressed as % inhibition=(post-treatment−post-vehicle)/(pre-capsaicin threshold−post-vehicle)×100. Statistic analysis: 2-way ANOVA (time and dose) and Bonferroni post-hoc analysis comparing each dose to vehicle.

[2] = tested on: rats (Sprague-Dawley, Harlan); test: Spared Nerve Ligation (SNL)-induced allodynia model (von Frey filaments); conditions: rat SNL model
Procedure: For the neuropathic pain model, rats (Sprague-Dawley, Harlan) were anesthetized with isoflurane and were placed on a heating pad. Using aseptic techniques, the L5 spinal nerve was exposed and ligated. Muscle and skin were closed with 4-0 Polydiaxone and wound clips, respectively. Animals were tested for allodynia 4 weeks post SNL surgery. Only rats that developed allodynia as defined by a significant decrease in their mechanical threshold using von Frey filaments, were used for evaluating the compound. Tactile allodynia was assessed with calibrated von Frey filaments (Stoelting Co), using an up-down paradigm before and at 2 hr and 44 hr post-compound administration. Data are expressed as % reversal=(post-treatment−post-vehicle)/(pre-SNL threshold−post-vehicle)×100.

`O=C(CC(c1ccccc1)c1ccccc1)N1CCNCC1` [Example 1, 1-(3,3-diphenylpropanoyl)piperazine] showed a reversal of hyperalgesia (Male Sprague Dawley rats; 3 mg/kg P.O., 3 hr post-dose) of 17%, a reversal of hyperalgesia (Male Sprague Dawley rats; 3 mg/kg P.O., one hour post-dose) of 26% and a reversal of hyperalgesia (Male Sprague Dawley rats; 10 mg/kg P.O., 3 hr post-dose) of 39%. It also gave a reversal of hyperalgesia (Male Sprague Dawley rats; 10 mg/kg P.O., one hour post-dose) of 43%, a reversal of hyperalgesia (Male Sprague Dawley rats; 30 mg/kg P.O., 3 hr post-dose) of 44% and a reversal of hyperalgesia (Male Sprague Dawley rats; 30 mg/kg P.O., one hour post-dose) of 63%. The “maximal percent inhibition of allodynia” value ([1]; 3 mg/kg P.O. 30 min before capsaicin challenge) was 33%, the “maximal percent inhibition of allodynia” value ([1]; 10 mg/kg P.O. 30 min before capsaicin challenge) was 46% and the “maximal percent inhibition of allodynia” value ([1]; 30 mg/kg P.O. 30 min before capsaicin challenge) was 89%. The “maximal percent reversal of allodynia” value ([2]; 3 mg/kg P.O.) was 11%, the “maximal percent reversal of allodynia” value ([2]; 10 mg/kg P.O.) was 47% and the “maximal percent reversal of allodynia” value ([2]; 30 mg/kg P.O.) was 47%.
